Results from PMC9578396, “Intrinsic Antibacterial Activity of Xeruborbactam In Vitro: Assessing Spectrum and Mode of Action” (Antimicrobial Agents and Chemotherapy, 2022).
“And” between values parts separate entries of the source, which are not always exact repeats. Identical values can stand only once. Like-named read-outs stand apart in the source and are kept apart here.

Legend:
Escherichia coli = test: Broth microdilution MIC (CLSI), Escherichia coli; format: cell-based
Outline: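 Test organisms were KPC-producing clinical isolates (some enriched for porin mutations), matched isolates that lost KPC plasmids, and engineered porin/efflux mutant strains. Susceptibility was measured by broth microdilution following CLSI methods, using panels prepared in-house.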

PBP2 = biological target: T1, PBP2 (Acinetobacter baumannii, UniProt D0C8Z9); test: Gel-based Bocillin FL competition PBP binding assay; settings: A. baumannii ACM1320 membranes; Bocillin FL step 0°C for xeruborbactam, 30°C for beta-lactams; read-out: Relative binding IC50, PBP2
T1 construct: endogenous in cells
T1 sequence (D0C8Z9 1-672): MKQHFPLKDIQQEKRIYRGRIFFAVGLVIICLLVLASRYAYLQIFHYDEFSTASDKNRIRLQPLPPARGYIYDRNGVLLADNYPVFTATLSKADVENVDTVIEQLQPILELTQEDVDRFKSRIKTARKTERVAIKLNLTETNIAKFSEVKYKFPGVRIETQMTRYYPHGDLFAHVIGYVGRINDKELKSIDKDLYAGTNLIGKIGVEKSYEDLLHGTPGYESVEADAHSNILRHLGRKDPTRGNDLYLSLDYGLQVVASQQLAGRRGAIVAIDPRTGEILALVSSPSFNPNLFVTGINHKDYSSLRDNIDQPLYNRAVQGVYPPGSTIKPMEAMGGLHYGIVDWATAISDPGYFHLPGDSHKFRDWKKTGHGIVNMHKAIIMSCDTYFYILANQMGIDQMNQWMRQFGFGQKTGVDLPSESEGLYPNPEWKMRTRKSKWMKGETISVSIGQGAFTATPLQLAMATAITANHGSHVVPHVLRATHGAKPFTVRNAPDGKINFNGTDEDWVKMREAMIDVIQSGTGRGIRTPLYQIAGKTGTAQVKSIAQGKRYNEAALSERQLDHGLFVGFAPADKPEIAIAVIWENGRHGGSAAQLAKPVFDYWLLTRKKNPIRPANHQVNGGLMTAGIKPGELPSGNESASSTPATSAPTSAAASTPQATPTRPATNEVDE
Method: (§1) Ten milliliters of overnight bacterial culture was inoculated in 1 L of LB medium and grown to an OD600 of 0.7 to 0.9. The cell pellet was washed once with 50 mL of solution containing 100 mM Na-phosphate at pH 7.0 and 100 mM NaCl and resuspended in 10 mL of the same buffer with one tablet of EDTA-free mini-protease inhibitor and 10 mg of lysozyme. Cell suspensions were incubated for 45 min at 37°C, and then 200 μL of DNase I was added along with MgSO4 (to a final concentration of 10 mM), followed by three cycles of freeze-thawing (10 min and 20 min, respectively). Four cycles of sonication at maximum power were performed next, each cycle lasting for 30 s with 1 min on ice between cycles. The cell suspension was centrifuged at 12,000 × g for 10 min at 4°C. The supernatant was collected and centrifuged at 100,000 × g for 45 min at 4°C. The pellet was washed three times with 10 mL of 100 mM Na-phosphate, pH 7.0, by resuspension and subsequent centrifugation at 100,000 × g for 10 min at 4°C. The pellet was finally resuspended in 1.5 mL of 100 mM Na-phosphate, pH 7.0, and passed several times through a Dounce homogenizer (tight pestle). Membrane preparations were aliquoted and kept at −80°C.
(§2) Five microliters of total bacterial membrane preparation was mixed with 5 μL of a test compound at a desired concentration in 100 mM Na-phosphate buffer, pH 7.0. Incubation of bacterial membrane preparations with control beta-lactams was performed for 10 min at 30°C; xeruborbactam was incubated with membrane preparations for 1 h at 30°C. Five microliters of 150 μM Bocillin FL fluorescent probe (Thermo Fisher Scientific) was added, and the reaction mixture was incubated for an additional 10 min at 30°C in the case of beta-lactams or for 20 min on ice (0°C) in the case of xeruborbactam. […] At the end of the incubation step, 15 μL of 2× SDS sample loading buffer was added, and the reaction mixture was incubated for 5 min at 95°C. Twenty-five microliters of the reaction mixture was then loaded on an 8% SDS Tris-glycine gel (Thermo Fisher Scientific). At the end of the run, the gel was briefly rinsed with water and fixed in 10% acetic acid, 40% methanol for 20 min. After an additional wash in water for 30 min, the gel was scanned on a Typhoon Trio+ Imager using a blue laser filter (excitation, 488 nm, and emission, 520 nm). Densitometry of the gel images was performed using ImageQuant software (Molecular Dynamics). IC50 values were calculated with Prism software (GraphPad).

PBP1b = PBP1b (Pseudomonas aeruginosa, UniProt G3XD31); test: as above
Method: as §1, §2

[1] = Escherichia coli, strain ECM6001, ΔacrB
[2] = Escherichia coli, strain ECM6502, marR (AcrAB overexpression)

PBP1b, sequence (G3XD31 entry or part of it): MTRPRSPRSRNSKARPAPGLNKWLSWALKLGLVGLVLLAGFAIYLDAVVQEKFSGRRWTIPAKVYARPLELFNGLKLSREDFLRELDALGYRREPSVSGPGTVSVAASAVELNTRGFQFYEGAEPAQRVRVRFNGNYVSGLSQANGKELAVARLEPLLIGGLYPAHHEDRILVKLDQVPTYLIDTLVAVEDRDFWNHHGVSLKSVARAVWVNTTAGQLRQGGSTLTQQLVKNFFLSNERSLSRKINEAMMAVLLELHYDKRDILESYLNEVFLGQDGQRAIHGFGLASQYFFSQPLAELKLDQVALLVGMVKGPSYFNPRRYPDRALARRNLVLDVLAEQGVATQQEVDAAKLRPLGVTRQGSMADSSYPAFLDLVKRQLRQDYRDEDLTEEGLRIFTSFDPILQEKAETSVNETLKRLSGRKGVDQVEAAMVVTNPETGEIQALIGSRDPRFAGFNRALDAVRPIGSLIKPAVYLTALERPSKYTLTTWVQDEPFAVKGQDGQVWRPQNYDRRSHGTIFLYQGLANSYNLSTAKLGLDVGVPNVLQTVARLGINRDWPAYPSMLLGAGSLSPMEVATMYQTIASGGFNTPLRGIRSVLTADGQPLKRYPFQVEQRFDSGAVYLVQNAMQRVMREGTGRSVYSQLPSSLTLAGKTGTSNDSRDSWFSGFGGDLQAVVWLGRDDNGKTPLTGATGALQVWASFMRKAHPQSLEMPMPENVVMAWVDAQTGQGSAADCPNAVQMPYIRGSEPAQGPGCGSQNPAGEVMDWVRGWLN

C[C@@H](O)[C@H]1C(=O)N2C(C(=O)O)=C(S[C@@H]3CN[C@H](C(=O)N(C)C)C3)[C@H](C)[C@H]12 [Meropenem]
MIC (Escherichia coli; Escherichia coli): 0.03 µg/mL
MIC (Escherichia coli; Escherichia coli, MG1655): 0.03 µg/mL and 0.08 µM
MIC (Escherichia coli; [1]): 0.03 µg/mL
MIC (Escherichia coli; [2]): 0.06 µg/mL
IC50 (PBP2): 11 nM
IC50 (PBP1b; read-out: Relative binding IC50, PBP1b; P. aeruginosa PAM3034 membranes; Bocillin FL step 0°C for xeruborbactam, 30°C for beta-lactams): 230 nM

O=C(O)c1c(F)ccc2c1OB(O)[C@@H]1C[C@H]21 [Xeruborbactam]
MIC (Escherichia coli; EC1078, PBP2 same as MG1655, PBP3 I332V): 32
MIC (Escherichia coli; EC1081, PBP2 same as MG1655, PBP3 Q227H): 8
MIC (Escherichia coli; EC1085, PBP2 T331P, PBP3 A233T I332V): 8
MIC (Escherichia coli; EC1088, PBP2 A308G, PBP3 same as MG1655): 8
MIC (Escherichia coli; EC1097, PBP2 M574I, PBP3 Q227H): 8
MIC (Escherichia coli; EC1098, PBP2 V217M, PBP3 YRIN ins, I532L): 8
MIC (Escherichia coli; EC1103, PBP2 same as MG1655, PBP3 YRIN ins, Q227H, E349K, I532L): 8
MIC (Escherichia coli; EC1105, PBP2 A543T, PBP3 YRIN ins, Q227H, E349K, I532L): 8
MIC (Escherichia coli; EC1119, PBP2 same as MG1655, PBP3 YRIN ins, Q227H, E349K, I532L): 32
MIC (Escherichia coli; EC1121, PBP2 V217M, PBP3 YRIN ins, E349K, I532L): 8
MIC50 (Escherichia coli; Escherichia coli, 334 isolates): 8 µg/mL
MIC90 (Escherichia coli; Escherichia coli, 334 isolates): 16 µg/mL
MIC range (Escherichia coli; Escherichia coli, 334 isolates): 2 to 32 µg/mL
MIC (Escherichia coli; Escherichia coli, Escherichia coli isolates, read-out: highest MIC observed): 32 µg/mL
MIC (Escherichia coli; Escherichia coli, MG1655, Escherichia coli ECM5497 (MG1655), read-out: MIC): 72 µM and 16 µg/mL
MIC (Escherichia coli; Escherichia coli, clinical isolate EC1078, OmpK35 NF, OmpK36 NF, read-out: MIC): 32 µg/mL
MIC (Escherichia coli; Escherichia coli, clinical isolate EC1081, OmpK35 FN, OmpK36 FN, read-out: MIC): 8 µg/mL
MIC (Escherichia coli; Escherichia coli, clinical isolate EC1085, OmpK35 FN, OmpK36 FN, read-out: MIC): 8 µg/mL
MIC (Escherichia coli; Escherichia coli, clinical isolate EC1088, OmpK35 FN, OmpK36 FN, read-out: MIC): 8 µg/mL
MIC (Escherichia coli; Escherichia coli, clinical isolate EC1097, OmpK35 FN, OmpK36 FN, read-out: MIC): 8 µg/mL
MIC (Escherichia coli; Escherichia coli, clinical isolate EC1098, OmpK35 NF, OmpK36 FN, read-out: MIC): 8 µg/mL
MIC (Escherichia coli; Escherichia coli, clinical isolate EC1119, OmpK35 NF, OmpK36 NF, read-out: MIC): 32 µg/mL
MIC (Escherichia coli; Escherichia coli, clinical isolate EC1121, OmpK35 NF, OmpK36 FN, read-out: MIC): 8 µg/mL
MIC (Escherichia coli; Escherichia coli, strain ECM5497, wild type, read-out: MIC): 8 µg/mL
MIC (Escherichia coli; [1]): 8 µg/mL
MIC (Escherichia coli; [2]): 8 µg/mL
MIC (Escherichia coli; Escherichia coli, strain ECM5497, read-out: MIC): 8 µg/mL
IC50 (PBP2): 23000 ± 2000 nM
IC50 (PBP1b; P. aeruginosa PAM3034 membranes; Bocillin FL step 0°C for xeruborbactam, 30°C for beta-lactams; listed as xeruborbactam; read-out: Relative binding IC50, PBP1b): 7100 ± 800 nM
IC50 (PBP1b; P. aeruginosa PAM3034 membranes; Bocillin FL step 0°C for xeruborbactam, 30°C for beta-lactams; read-out: Relative binding IC50, PBP1b): 1900 ± 200 nM
